Laboratory results: the supplement of paper PMC7017272
± gives the standard deviation of the averaged measurements.

Assays:
Conditions in all cases: treatment time: 3 days
UT-SCC-81 [1] = assay: relative IC50 (midpoint of the fitted curve; maximal inhibition may be below 50%); higher = less potent
How it was run: (§1)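 Viability of HPV-negative HNSCC cell lines was measured by CellTiter-Glo 2.0 luminescence. Cells were seeded at 500 cells/well in 384-well plates on plastic, on Matrigel- or Myogel-coated wells (500 µg/mL), or embedded in Matrigel or Myogel plus rat collagen I, then given compounds at five 10-fold concentrations for 3 days, with signals normalised to vehicle (0.1% DMSO) and cell-killing control wells. Fitting of percent-inhibition dose–response curves in the FIMM pipeline yielded IC50, maximal inhibition and drug sensitivity score.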

UT-SCC-24B [2] = assay: as above
How it was run: as §1

UT-SCC-40 [3] = assay: as above
How it was run: as §1

UT-SCC-28 = assay: maximal % inhibition of viability relative to DMSO; higher = stronger effect
Protocol: (§2)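 HNSCC cell lines (500 cells/well, 384-well) were cultured on plastic, on top of (2D) or embedded (3D) in Matrigel or human leiomyoma matrix Myogel (500 ug/mL; Myogel 3D mixed with rat collagen I). Cells were treated for 3 days with 5 ten-fold concentrations of each drug, and viability was read by CellTiter-Glo. Viability was normalised to DMSO and benzethonium chloride controls and fitted with the FIMM DSRT pipeline to give IC50 (nM), maximal % inhibition and DSS. Suffixes _1/_2/_3 are replicates. Only inhibition-mode (IC50) fits are kept.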

UT-SCC-81 [4] = assay: as above
Protocol: as §2

UT-SCC-44 = assay: as above
Protocol: as §2

UT-SCC-42A = assay: as above
Protocol: as §2

UT-SCC-14 = assay: as above
Protocol: as §2

UT-SCC-24B [5] = assay: as above
Protocol: as §2

UT-SCC-42B = assay: as above
Protocol: as §2

UT-SCC-40 [6] = assay: as above
Protocol: as §2

UT-SCC-73 = assay: as above
Protocol: as §2

UT-SCC-8 = assay: as above
Protocol: as §2

UT-SCC-106A = assay: as above
Protocol: as §2

UT-SCC-24A = assay: drug sensitivity score (DSS); higher = more sensitive
Protocol: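 HNSCC cell lines (500 cells/well, 384-well) were cultured on plastic, on top of (2D) or embedded (3D) in Matrigel or human leiomyoma matrix Myogel (500 ug/mL; Myogel 3D mixed with rat collagen I). Cells were treated for 3 days with 5 ten-fold concentrations of each drug, and viability was read by CellTiter-Glo. Suffixes _1/_2/_3 on drug names are replicates.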

[7] = culture condition: embedded in Matrigel
[8] = culture condition: embedded in Myogel + collagen I
[9] = culture condition: on top of Matrigel
[10] = culture condition: plastic 2D (no matrix)
[11] = culture condition: on top of Myogel

## COc1cc(F)c(F)c(Nc2ccc(I)cc2F)c1NS(=O)(=O)C1(C[C@H](O)CO)CC1 [Refametinib]
UT-SCC-81 [1]; [7]
  relative IC50: 14.2 nM
UT-SCC-81 [1]; [8]
  relative IC50: 924 nM
UT-SCC-81 [1]; [9]
  relative IC50: 61.6 nM
UT-SCC-81 [1]; [10]
  relative IC50: 850 nM
UT-SCC-24B [2]; [7]
  relative IC50: 309 nM
UT-SCC-24B [2]; [8]
  relative IC50: 808 nM
UT-SCC-24B [2]; [9]
  relative IC50: 317 nM
UT-SCC-24B [2]; [11]
  relative IC50: 1430 nM
UT-SCC-24B [2]; [10]
  relative IC50: 184 nM
UT-SCC-40 [3]; [7]
  relative IC50: 15.3 nM
UT-SCC-40 [3]; [8]
  relative IC50: 118 nM
UT-SCC-40 [3]; [9]
  relative IC50: 33.5 nM
UT-SCC-40 [3]; [11]
  relative IC50: 83.3 nM
UT-SCC-40 [3]; [10]
  relative IC50: 111 nM
UT-SCC-28; [7]
  maximal % inhibition of viability: 49.8 ± 4%
UT-SCC-28; [8]
  maximal % inhibition of viability: 33 ± 8.1%
UT-SCC-28; [9]
  maximal % inhibition of viability: 45.1 ± 8.6%
UT-SCC-28; [10]
  maximal % inhibition of viability: 23.7 ± 2%
UT-SCC-81 [4]; [7]
  maximal % inhibition of viability: 87.7 ± 0.46%
UT-SCC-81 [4]; [8]
  maximal % inhibition of viability: 50.7 ± 1.9%
UT-SCC-81 [4]; [9]
  maximal % inhibition of viability: 82.7 ± 0.99%
UT-SCC-81 [4]; [11]
  maximal % inhibition of viability: 52 ± 3.4%
UT-SCC-81 [4]; [10]
  maximal % inhibition of viability: 73.1 ± 2.5%
UT-SCC-44; [7]
  maximal % inhibition of viability: 90.4 ± 2.6%
UT-SCC-44; [8]
  maximal % inhibition of viability: 55.1 ± 5%
UT-SCC-44; [9]
  maximal % inhibition of viability: 73.2 ± 7%
UT-SCC-44; [11]
  maximal % inhibition of viability: 56.9 ± 0.9%
UT-SCC-44; [10]
  maximal % inhibition of viability: 62.2 ± 4.4%
UT-SCC-42A; [7]
  maximal % inhibition of viability: 61.2 ± 1.2%
UT-SCC-42A; [8]
  maximal % inhibition of viability: 42.4 ± 6.9%
UT-SCC-42A; [9]
  maximal % inhibition of viability: 61.9 ± 0.94%
UT-SCC-42A; [11]
  maximal % inhibition of viability: 48.8 ± 5.2%
UT-SCC-42A; [10]
  maximal % inhibition of viability: 58.8 ± 3.1%
UT-SCC-14; [7]
  maximal % inhibition of viability: 62.5 ± 5.1%
UT-SCC-14; [8]
  maximal % inhibition of viability: 57 ± 5.9%
UT-SCC-14; [9]
  maximal % inhibition of viability: 52.9 ± 9.5%
UT-SCC-14; [11]
  maximal % inhibition of viability: 52.2 ± 5.8%
UT-SCC-14; [10]
  maximal % inhibition of viability: 47.7 ± 7.5%
UT-SCC-24B [5]; [7]
  maximal % inhibition of viability: 72.4 ± 3.9%
UT-SCC-24B [5]; [8]
  maximal % inhibition of viability: 86.3 ± 3.8%
UT-SCC-24B [5]; [9]
  maximal % inhibition of viability: 72.9 ± 4.8%
UT-SCC-24B [5]; [11]
  maximal % inhibition of viability: 72.2 ± 2.3%
UT-SCC-24B [5]; [10]
  maximal % inhibition of viability: 84 ± 2.2%
UT-SCC-42B; [7]
  maximal % inhibition of viability: 79.1 ± 7.6%
UT-SCC-42B; [9]
  maximal % inhibition of viability: 64.1 ± 4.8%
UT-SCC-42B; [11]
  maximal % inhibition of viability: 46.5 ± 1.5%
UT-SCC-42B; [10]
  maximal % inhibition of viability: 47.5 ± 2.6%
UT-SCC-40 [6]; [7]
  maximal % inhibition of viability: 80.9 ± 2.5%
UT-SCC-40 [6]; [8]
  maximal % inhibition of viability: 76 ± 7.2%
UT-SCC-40 [6]; [9]
  maximal % inhibition of viability: 75.9 ± 1.6%
UT-SCC-40 [6]; [11]
  maximal % inhibition of viability: 61.23 ± 0.5%
UT-SCC-40 [6]; [10]
  maximal % inhibition of viability: 63.2 ± 2.9%
UT-SCC-73; [7]
  maximal % inhibition of viability: 85.7 ± 3.9%
UT-SCC-73; [8]
  maximal % inhibition of viability: 73.4 ± 14%
UT-SCC-73; [9]
  maximal % inhibition of viability: 81.8 ± 1.5%
UT-SCC-73; [11]
  maximal % inhibition of viability: 72 ± 2.7%
UT-SCC-73; [10]
  maximal % inhibition of viability: 75.8 ± 3.1%
UT-SCC-8; [7]
  maximal % inhibition of viability: 88.8 ± 1.6%
UT-SCC-8; [8]
  maximal % inhibition of viability: 74.1 ± 13%
UT-SCC-8; [9]
  maximal % inhibition of viability: 81.7 ± 2.5%
UT-SCC-8; [11]
  maximal % inhibition of viability: 73 ± 5.1%
UT-SCC-8; [10]
  maximal % inhibition of viability: 80.2 ± 3.9%
UT-SCC-106A; [7]
  maximal % inhibition of viability: 53.7 ± 4.7%
UT-SCC-106A; [8]
  maximal % inhibition of viability: 36.7 ± 3.4%
UT-SCC-106A; [9]
  maximal % inhibition of viability: 66 ± 2.5%
UT-SCC-106A; [11]
  maximal % inhibition of viability: 43.4 ± 3.1%
UT-SCC-106A; [10]
  maximal % inhibition of viability: 67.33 ± 0.64%
UT-SCC-24A; [7]
  drug sensitivity score: 34.3 ± 1.1 DSS
UT-SCC-24A; [8]
  drug sensitivity score: 17.3 ± 2.2 DSS
UT-SCC-24A; [9]
  drug sensitivity score: 29.2 ± 1.3 DSS
UT-SCC-24A; [11]
  drug sensitivity score: 13 ± 1.6 DSS
UT-SCC-24A; [10]
  drug sensitivity score: 26.7 ± 0.62 DSS
